Measured values reported in patent US20210290676A1, “IMPROVING THE EFFICACY AND SAFETY OF ADOPTIVE CELLULAR THERAPIES” (University of Southern California, priority 2018, published 2021).

Tests used:
Assay type in all cases: cell-based, human
[1] = test system: Pgp+ (DiOC2(3)-dye effluxing) T cells; assay: DiOC2(3) dye efflux flow cytometry of inhibitor-treated T cells; settings: treatment for 13 days, IL2 + CD3 and CD28 antibodies
Protocol: (§1) The use of P-glycoprotein (Pgp)-mediated efflux of DiOC2(3) to isolate stem like T cells for adoptive cellular therapy has been described in application no. […] In the following examples, DiOC2(3) staining was used to study the effect of different inhibitors on generation of stem like T cells.
(§2) DAY 0: Blood was obtained from unidentified donor. After RBC lysis, PBMC were collected using Ficoll-Hypaque separation. […] T cells were cultured in three different conditions: • 1. XVIVO 15 medium (Lonza) with IL2 50 IU/ml, CD3 antibody (30 ng/ml) and CD28 antibody (30 ng/ml). • 2. XVIVO 15 medium (Lonza) with CD3 antibody (30 ng/ml) and CD28 antibody (30 ng/ml). • 3. XVIVO 15 medium (Lonza) with IL2 50 IU/ml DAY 1: Cells were plated in a 6-well plate at a density of 1 million cells in 2 ml/of media (as described above) and treated with different inhibitors
(§3) The cell growth medium was changed in 6-well plates and fresh drugs were added at same concentration for one more week.
(§4) […] (DAY 11): Culture medium was changed and fresh drugs were added in 6-well plates.
(§5) Subsequently, cells were washed with RPMI medium and dye was effluxed at 37° C. for 90 min. Cells were washed with […], stained with CD62L-APC (5 μl/100 μl/sample) at 4° C. for 1 h, washed twice with PBS+1% FBS and analyzed on flow cytometer to check if these drugs treatment leads to increase in Pgp+/CD62L positive population.
(§6) Day 0: Blood was obtained from unidentified donor. After RBC lysis, PBMC were collected using Ficoll-Hypaque separation. 200 million T cells were isolated from PBMCs using CD3 microbeads. T cells were cultured overnight in XVIVO 15 medium (Lonza) with IL2 (50 IU/ml), 30 ng/ml of CD3 and CD28 antibodies
(§7) Day 1: Cells were plated in 24-well plates at a density of 0.3 million cells/ml in each well and treated with different drugs.
(§8) On day 7, culture medium was replaced with fresh medium with fresh drugs.
(§9) On day 13, culture medium was replaced with fresh medium and fresh drugs. Half of the cells were transferred to 6-well plates.
(§10) Day 14: An aliquot of cells with all the treatments listed above (for 13 days) was used to stain the cells with DiOC2(3) (60 ng/ml in RPMI medium) at 4° C. for 40 min, washed with RPMI medium, DiOC2(3) dye was effluxed at 37° C. for 90 min, washed with PBS+1% FBS, stained with CD62L-APC antibody. CD62L is a marker for resting T cells. (5 μl/100 μl/sample) at 4° C. for 1 h, washed twice with PBS+1% FBS and analyzed on flow cytometer to check if these drugs are affecting the dye-effluxing or Pgp+ (i.e., DiOC2(3)-dull) T-cell population.

[2] = test system: Pgp+ (DiOC2(3)-dye effluxing cells) and CD62L+ T cells; assay: DiOC2(3) dye efflux plus CD62L-APC staining, flow cytometry of inhibitor-treated T cells; settings: treatment for 13 days, IL2 + CD3 and CD28 antibodies
Protocol: as §1, §2, §3, §4, §5, §6, §7, §8, §9, §10

[3] = test system: CD8+CD45RA+CCR7+CD62L+ T cells; assay: Flow cytometry for CD8, CD45RA, CCR7 and CD62L on inhibitor-treated T cells; settings: cells cultured for 14 days
Protocol: as §2
(§11) A second aliquot of the cells cultured for 13 days with all the treatments listed above (1-21) was washed with PBS+1% FBS, stained with CD8-PerCP, CD45RA-FITC, CCR7-PE and CD62L-APC (5% Y/100 μl/sample for each of 4 antibodies) at 4° C. for 1 h, washed twice with PBS+100 FBS and analyzed on flow cytometer to check if these drugs are enriching T stem cells showing surface expression of CD8+CD45RA+CCR7+CD62L+.
as §6, §7, §8, §9
as §11, with “14” for “13”, “above” for “above (1-21)”, “(5 ul/100 ul/sample” for “(5% Y/100 μl/sample”, “PBS+1%” for “PBS+100”, “enriching for” for “enriching”, “T” for “T stem”

[4] = test system: CD45RA+CCR7+CD62L+ T cells; assay: Flow cytometry for CD45RA, CCR7 and CD62L on inhibitor-treated T cells (all T cells); settings: cells cultured for 14 days
Protocol: as §2, §11, §6, §7, §8, §9
as §11, with “14” for “13”, “above” for “above (1-21)”, “(5 ul/100 ul/sample” for “(5% Y/100 μl/sample”, “PBS+1%” for “PBS+100”, “enriching for” for “enriching”, “T” for “T stem”

CCCc1cc(C)[nH]c(=O)c1CNC(=O)c1cc(-c2ccc(N3CCN(C(C)C)CC3)nc2)cc2c1cnn2C(C)C [UNC1999]
p2: pgp+ from Live cells ([1]; 100 nM): 36.8 | p2: pgp+ from Live cells ([1]; 500 nM): 31.14 | p5: double +ve pgp+ and CD62L-APC+ from Live cells ([2]; 100 nM): 11.06 | p5: double +ve pgp+ and CD62L-APC+ from Live cells ([2]; 500 nM): 8.9 | GATE P4 CD8(PerCP)+, CD45RA(FITC)+, CCR7 (PE)+, CD62L(APC) ([3]; 100 nM): 71.75% | GATE P4 CD8(PerCP)+, CD45RA(FITC)+, CCR7 (PE)+, CD62L(APC) ([3]; 500 nM): 74.57% | GATE P6 CD45RA(FITC)+, CCR7 (PE)+, CD62L(APC) ([4]; 100 nM): 59.08% | GATE P6 CD45RA(FITC)+, CCR7 (PE)+, CD62L(APC) ([4]; 500 nM): 60.97%

BI7273
p2: pgp+ from Live cells ([1]; 100 nM): 16.69 | p2: pgp+ from Live cells ([1]; 500 nM): 16.34 | p5: double +ve pgp+ and CD62L-APC+ from Live cells ([2]; 100 nM): 2.73 | p5: double +ve pgp+ and CD62L-APC+ from Live cells ([2]; 500 nM): 2.38 | GATE P4 CD8(PerCP)+, CD45RA(FITC)+, CCR7 (PE)+, CD62L(APC) ([3]; 100 nM): 70.33% | GATE P4 CD8(PerCP)+, CD45RA(FITC)+, CCR7 (PE)+, CD62L(APC) ([3]; 500 nM): 77.81% | GATE P6 CD45RA(FITC)+, CCR7 (PE)+, CD62L(APC) ([4]; 100 nM): 57.15% | GATE P6 CD45RA(FITC)+, CCR7 (PE)+, CD62L(APC) ([4]; 500 nM): 61.86%
